Experimental data: patent publication US20240158339A1, “TYRAMINE CONTAINING HYDROXYCINNAMIC ACID AMIDE DERIVATIVES AND METHODS OF USE THEREOF” (Brightseed, Inc., priority 2018, published 2024)
Entries after “also recorded” stand apart in the source; their conditions may differ.

How the values were obtained:
[1] = molecular target: T1, HNF4α (Homo sapiens, UniProt P41235); assay: Insulin promoter activity assay (HNF4α assay) in T6PNE cells; assay type: cell-based; conditions: for HNF4α activation / bioactivity (screening result in words): HNF4α assay, screening and SAR statements
T1 construct: T6PNE cells (Kiselyuk, et al. (2012) Chem. Biol. 19(7):806-818; Kiselyuk, et al. (2010) J. Biomol; endogenous in cells; host or cells: T6PNE cells
T1 sequence (P41235 1-474): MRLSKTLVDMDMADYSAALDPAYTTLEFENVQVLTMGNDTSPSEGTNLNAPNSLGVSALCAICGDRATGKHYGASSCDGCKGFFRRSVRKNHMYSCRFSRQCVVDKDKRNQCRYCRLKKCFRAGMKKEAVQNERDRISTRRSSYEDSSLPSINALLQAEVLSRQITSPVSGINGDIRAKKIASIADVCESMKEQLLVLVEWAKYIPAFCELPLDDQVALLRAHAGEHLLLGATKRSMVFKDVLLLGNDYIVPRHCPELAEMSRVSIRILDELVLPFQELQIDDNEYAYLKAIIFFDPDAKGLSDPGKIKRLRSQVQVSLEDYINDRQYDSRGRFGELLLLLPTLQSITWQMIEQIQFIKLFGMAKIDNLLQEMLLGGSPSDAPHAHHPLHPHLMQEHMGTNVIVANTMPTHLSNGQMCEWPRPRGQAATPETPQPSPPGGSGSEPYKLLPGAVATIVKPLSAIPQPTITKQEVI
Protocol: Insulin Promoter Activity. T6PNE cells (Kiselyuk, et al. (2012) Chem. Biol. 19(7):806-818; Kiselyuk, et al. (2010) J. Biomol. Screen 15(6):663-70) are seeded at 2000 cells per well in 384-well tissue culture plates in the presence of 1 μM tamoxifen and 0.03 mM palmitate. After a 24-hour incubation, a compound of the invention is added to the cells. Forty-eight hours after compound addition, cells are fixed in 4% paraformaldehyde and stained with DAPI. Blue (DAPI) and green (human insulin promoter driving GFP) channels are imaged.
Inhibition of HNF4α GFP Expression. Using the insulin promoter assay described herein, activity of HNF4α was assessed in the presence of BI-6015 (0, 2.5, 5 μM), a known antagonist of HNF4α (Kiselyuk, et al. (2012) Chem. Biol. 19(7):806-818), in combination with N-trans-caffeoyltyramine (0, 5, 10, 20 μM).
Given the role of HNF4α in maintaining a health metabolism in humans, test compounds were screened for activity as HNF4α agonists (either direct or indirect effects). Using a known insulin promoter-reporter assay Kiselyuk and colleagues (2010. J. Biomol. Screen 15(6):663-70) screened a library of compounds for activity to promote insulin activation. […] The OTC promoter is known to be responsive to HNF4α in transient transfection assays (Inoue, et al. (2002) J. Biol. Chem. 277:25257-65).
Plant compounds in the top 10th percentile of similarity to the 18 target structures were selected and compounds predicted to be potential agonists of HNF4α activity given their chemical structural features were screened in the HNF4α assay.

[2] = tested on: HNF4α mRNA; assay: HNF4α mRNA levels by quantitative PCR; assay type: cell-based; conditions: FIG. 3
Protocol: (§1) Expression of Insulin and HNF4α. RNA was purified using a RNEASY® chromatographic separation and isolation kits (Qiagen), and converted to cDNA using the gScript™ cDNA SuperMix (Quanta Biosciences). Q-PCR was conducted with cDNA corresponding to 2 μg of RNA using an Opticon Real-Time System (MJ Research) and QPCR SuperMix (BioPioneer). See All mRNA values were normalized to 18S rRNA values and are expressed as fold changes over vehicle-treated control.

[3] = tested on: insulin mRNA; assay: Insulin mRNA levels by quantitative PCR; assay type: cell-based; conditions: FIG. 2
Protocol: as §1

[4] = tested on: T6PNE cells; assay: Lipid clearance (steatosis assay) in T6PNE cells; assay type: cell-based; conditions: for fat accumulation: T6PNE cells, 0.25 mM palmitate, 10 μM compound
Protocol: T6PNE cells were pretreated for 1 day with 0.06 mM, 0.12 mM or 0.25 mM palmitate at which time 15 μM N-trans-caffeoyltyramine or control (DMSO) was added. Cells were harvested on day 3, 6 and 8 and subjected to staining with Nile Red and […]. Results are expressed as fold change in Nile Red staining: +palmitate/10% FBS medium (no palmitate).
(§2) Lipid Clearance in HepG2 and T6PNE Cells (Steatosis Assay). The steatosis assay was carried out as described (Kiselyuk, et al. (2012) Chem. Biol. 19(7):806-818) with the exception of the drug concentration, which was 20 μM for N-trans-caffeoyltyramine with 0.25 mM palmitate in HepG2 cell lines, and 10 μM of either N-trans-caffeoyltyramine, N-trans-caffeoyltyramine, or p-coumaroyltyramine, with 0.25 mM palmitate in T6PNE cell lines. Steatosis was assessed using the Oil Red O Method for Fats kits (Poly Scientific; Warrington, PA), per manufacturer's guidelines. Briefly, frozen tissue slides or fixed cells were incubated in neat propylene glycol for 2 minutes and Oil Red O solution for […] for slides or 1 hour for fixed cells, differentiated in 85% propylene glycol solution for 1 minute, washed twice with distilled water and stained in Hematoxylin of 10 seconds. Slides were mounted with glycerin jelly mounting medium.

[5] = pH stability assessment; assay type: physicochemical; conditions: pH 2, 7.4, 8.5 and 10, 37° C., 0.5 vs 72 hours
Protocol: pH Stability Assessment. Individual stock solutions were prepared in DMSO at concentrations of 10 mg/mL. Four different buffer solution s were prepared to achieve solutions with a pH of 2, 7.4, 8.5 and 10. For each pH assay, 5 μL of stock solution was added to 245 μL of buffered solution to a 2 mL tube, vortexed and incubated in a 37° C. water bath. At each timepoint, 50 μL aliquots were taken, neutralized and analyzed via HPLC analysis using a DAD detector at 280 nm. The fold change of the peak area at 280 nm was analyzed for the initial and final timepoint, 0.5 and 72 hours, respectively.

[6] = tested on: HepG2 cells; assay: Lipid clearance (steatosis assay) in HepG2 cells; assay type: cell-based; conditions: HepG2 liver cells, 20 μM
Protocol: as §2

[7] = tested on: E47MER; assay: Counter-screen for estrogenic activity (E47MER luciferase reporter in HeLa cells); assay type: cell-based, human; conditions: with 1 μM or without tamoxifen, FIG. 5
Protocol: Counter-Screen for Estrogenic Activity. Estrogenic activity was monitored by co-transfection of a reporter plasmid containing a multimerized E-box 5′ of a minimal promoter fused to the Firefly luciferase gene with wild-type E47 or E47MER (Kiselyuk, et al. (2010) J. Biomol. Screen 15(6):663-70). HeLa cells were transfected using polyethylenimine, 0.2 μg 4RTK-Luc plasmid and either 0.3 μg of human E47, E47MER or pMSCVhph vector in 50 μl of serum-free Dulbecco's modification of Eagle medium per well. Transfections included Renilla luciferase (pRL-TK) plasmid as a control for transfection efficacy. Transfection conditions were as described in the PPRE-Luc reporter assay of Kiselyuk, et al. ((2010) J. Biomol. Screen 15(6):663-70). Sixteen hours after transfection, culture media were changed and maintained for 48 hours with tamoxifen and/or compound or vehicle (DMSO). Cells were then lysed and assayed for luciferase activity using the Promega DUAL-LUCIFERASE® reporter assay kit (Promega Corp., Madison, WI), and luminescence was measured using the Veritas™ Microplate Luminometer (Turner Biosystems, Sunnyvale, CA). Data were normalized to Renilla luciferase (pRL-TK) and expressed as fold-change over vehicle alone.

[8] = Bioavailability determination in male C57BL/6 mice; conditions: IV 2 mg/kg vs oral or IP 30 mg/kg, route not stated in Table 3

HNF4α activation / bioactivity (screening result in words) [1] | Structure (SMILES) | HNF4α gene expression [2] | insulin gene expression [3] | also measured
complete loss of HNF4α activation | COc1cc(/C=C\C(=O)NCCc2ccc(O)cc2)ccc1O [cis-feruloyltyramine] | inactive | inactive | 
complete loss of HNF4α activation | O=C(/C=C/c1ccc(O)cc1)NCCc1ccc(O)c(O)c1 [N-coumaroyldopamine] | inactive | inactive | 

More lines, now with the values behind:

Structure (SMILES) | HNF4α activation / bioactivity (screening result in words) [1] | HNF4α gene expression [2] | insulin gene expression [3] | also measured
O=C(C=Cc1ccccc1)NCCc1ccccc1 [N-2-phenylethylcinnamide] | complete loss of bioactivity |  |  | 
COc1cc(/C=C/C(=O)NCC(O)c2ccc(O)cc2)ccc1O (stereo not drawn) [N-trans-feruloyloctopamine] | complete loss of HNF4α activation | inactive | inactive | 
O=C(/C=C/c1ccc(O)cc1)NCC(O)c1ccc(O)cc1 (centres unmarked) [p-coumaroyloctopamine] |  | inactive | inactive | 
O=C(C=CCCc1ccccc1)CCc1ccccc1 [1,7-diphenylhept-4-en-3-one] | complete loss of bioactivity |  |  | 
O=C(/C=C/c1ccc(O)cc1)NCCc1ccc(O)cc1 [p-coumaroyltyramine] | able to act as HNF4α modulators | upregulated | upregulated | HNF4α activation / bioactivity (screening result in words) ([1]; listed as N-trans-coumaroyltyramine): additional reduction but not eradication of bioactivity; fat accumulation [4]: inhibition of fat accumulation
Cc1ccc([N+](=O)[O-])cc1S(=O)(=O)n1c(C)nc2ccccc21 [BI-6015, reference compound] |  |  |  | effect on N-trans-caffeoyltyramine-mediated increases in insulin expression ([1]; BI-6015 0, 2.5, 5 μM with N-trans-caffeoyltyramine 0, 5, 10, 20 μM, FIG. 4): inhibited
COc1cc(/C=C/C(=O)NCCc2ccc(O)cc2)ccc1O [N-trans-feruloyltyramine] | able to act as HNF4α modulators; also recorded: reduces but does not eradicate bioactivity | upregulated | upregulated | pH Stability [5]: Stable; clearing of fats, Oil Red O staining [6]: capable of clearing harmful fats from the liver; accumulation of fats ([6]; 0.25 mM palmitate): inhibited accumulation of fats; estrogenic activity [7]: did not exhibit estrogenic activity; lipid accumulation when palmitate was added prior to compound ([4]; T6PNE cells pretreated 1 day with 0.06-0.25 mM palmitate, 15 μM compound, Nile Red, FIG. 6): can reverse fat accumulation; fat accumulation [4]: inhibition of fat accumulation; bioavailability [8]: ~7%
